In patent publication US5385899A, “Aminoalkyl-substituted 5,6-dihydro-dibenz[b,e]azepine-6,11-dione-11-oximes” (Bayer Aktiengesellschaft, priority 1991, dated 1995):
Like-named read-outs stand apart in the source and are kept apart here.

System: HIV
Assay: HIV infection in cell culture: suppression of virus-induced syncytia (PBLs or H9 cells)
Format: cell-based
Conditions: read-out: IC50 (suppression of 50% of virus-induced syncytia)
Protocol: The HIV test was carried out with slight modifications according to the method of Pauwels et al. [cf. Journal of Virological Methods 20, (1988), 309-321].
Normal human blood lyphocytes (PBLs) were concentrated by means of Ficoll-Hypaque and stimulated with phytohaemagglutinin (90 μg/ml) and interleukin-2 (40 U/ml) in RPMI 1640 and 20% foetal calf serum. For infection with the infectious HIV, PBLs were pelleted and the cell pellet was then suspended in 1 ml of HIV virus adsorption solution and incubated for 1 hour at 37° C.
Alternatively, HIV-susceptible H9 cells were employed instead of normal human blood lymphocytes for testing the antiviral effects of the compounds according to the invention.
The virus adsorption solution was centrifuged and the infected cell pellet was taken up in growth medium so that a concentration of 1×10^5 cells per ml was established. The cells infected in this way were pipetted into the wells of 96-well microtiter plates to give 1×10^4 cells/well.
The first vertical row of the microtiter plate contained only growth medium and cells which had not been infected, but otherwise treated exactly as described above (cell control). The second vertical row of the microtiter plate contained only HIV-infected cells (virus control) in growth medium. The other wells contained the compounds according to the invention in differing concentrations, starting from the wells of the 3rd vertical row of the microtiter plate, from which the test substances were diluted 2^10 times in 2-fold steps.
The test batches were incubated at 37° C. until, in the untreated virus control, the syncytia formation typical of HIV occurred (between day 3 and 6 after infection), which was then microscopically assessed. Under these test conditions, in the untreated virus control about 20-50 syncytia resulted, while the untreated cell control contained no syncytia.
The IC50 values were determined as the concentration of the treated and infected cells at which 50% (about 10-20 syncytia) of the virus-induced syncytia were suppressed by treatment with the compound according to the invention.

[1] = Human immunodeficiency virus 1, 72 h, HIV-infected PBLs or alternatively H9 cells, syncytia assessed microscopically between day 3 and 6 after infection, 37° C.

IC50 [1] | SMILES | IC50 (Human immunodeficiency virus 1, H9, 72 h)
380 nM | CN(C)CCON=c1c2cc(Cl)ccc2[nH]c(=O)c2ccccc12 (mixture of isomers) [Example 1, (E/Z)-2-Chloro-11-(2-dimethylaminoethoxyimino)-6-oxo-5,6-dihydro-11H-dibenz[b,e] azepine] | 
 | Cc1ccnc2c1NC(=O)c1cccnc1N2C1CC1 [BIRG 587, reference compound] | 90 nM
1500 nM | O=c1[nH]c2ccc(Cl)cc2c(=NOCCN2CCOCC2)c2ccccc12 [Example 3] | 
